Consider 17 molecules from the RepoRT retention time repository.

SMILES strings stand for the structures.

The data set in a line: Waters ACQUITY UPLC BEH C18, 50 × 2.1 mm, 1.7 µm, 30 °C, 0.3 mL/min, estimated dead time 0.37 min; A: water + 0.3% formic acid; B: acetonitrile; gradient (min/%B) 0.5/5 3.5/20 5.5/25 7/57 8/90. The following applies: stereoisomer not certain.

For the molecule `CC(C)(C)NCC(O)c1ccc(O)c(CO)c1` (configuration not stated), the LC retention time is 1.45 min. Next, `Cc1cc(C)cc(NC(=O)Cc2ccc(OC(C)(C)C(=O)O)cc2)c1`: 7.59 min. The result for `CN1C2CCC1C(C(=O)O)C(OC(=O)c1ccccc1)C2` (configuration not stated) reads 3.31 min; that for `NC(CC(O)COc1cccc2ccccc12)=NO` (configuration not stated), 4.76 min; that for `Nc1nc(N)c2nc(-c3ccccc3)c(N)nc2n1`, 3 min. On to `CCN(CC)C(=O)Nc1ccc(OCC(O)CNC(C)(C)C)c(C(C)=O)c1` (configuration not stated), for which the LC retention time was 4.46 min. The result for `O=C(CS(=O)C(c1ccccc1)c1ccccc1)NO` (configuration not stated) reads 5.7 min. Next, `CC(Cc1ccccc1)N(C)Cc1ccccc1` (configuration not stated): 5.59 min.

As to `CCN(CC)C(=O)c1ccc(O)c(OC)c1`, the LC retention time was 4.77 min. The result for `CC(C)NC1CCn2c(=O)[nH]c3cccc(c32)C1O` (configuration not stated) reads 1.43 min; that for `CC(C)(C)NCC(O)COc1cccc2c1CCCC2=O` (configuration not stated), 4 min. Next, `CCCC1OC2CC3C4CCC5=CC(=O)C=CC5(C)C4C(O)CC3(C)C2(C(=O)CO)O1` (configuration not stated): 7.46 min; `CCCCCC(C)N` (configuration not stated): 3.17 min.

For `CCCN(CCC)S(=O)(=O)c1ccc(C(=O)O)cc1`, the LC retention time is 7.56 min. The result for `CC(C)NCC(O)COc1ccc(CC(N)=O)cc1` (configuration not stated) reads 1.62 min.

For the molecule `CCC(=C(c1ccccc1)c1ccc(OCCN(C)C)cc1)c1ccccc1`, the LC retention time is 7.76 min. `CC12C=CC(=O)C=C1CCC1C2C(O)CC2(C)C1CCC2(O)C(=O)CO` (configuration not stated): the LC retention time was 6.15 min.
